Measurements as given in patent publication US20120232062A1, “AZAINDAZOLES TO TREAT FLAVIVIRIDAE VIRUS INFECTION” (EIGER BIOPHARMACEUTICALS, INC., priority 2009, published 2012).
Like-named read-outs stand apart in the source and are kept apart here.

Experiments:
[1] = In vivo rat pharmacokinetic studies; details: for concentration in liver, fold above the EC50: rat liver after PO 20 or 40 mpk, for qd dosing
Description: In vivo rat pharmacokinetic studies are designed to measure bioavailability, tissue distribution and metabolite identification in rats after intravenous (IV) and oral (PO) dosing. A full PK study typically includes two study arms (IV and PO) and takes serial blood samples from multiple animals per compound. The assay as described in this example was developed by BioDuro, a corporation of China with its principal office located at Building E, No. 29 Life Science Park Road, Changping District, Beijing, 102206, P.R. China.
Each compound was singly dosed both IV (1 mpk (mg/kg) to rats 1-3) and PO (20 or 40 mpk to rats 4-18), followed by blood draws and liver concentration studies (for PO dosed rats) from each animal at each time point.

[2] = target: T1, hERG channel (Homo sapiens, UniProt Q12809); assay: hERG channel assay; type: cell-based; details: CHO cell line expressing hERG, whole cell recordings
T1 construct: host or cells: CHO (Chinese Hamster Ovary), stably transfected
T1 sequence (Q12809 whole entry): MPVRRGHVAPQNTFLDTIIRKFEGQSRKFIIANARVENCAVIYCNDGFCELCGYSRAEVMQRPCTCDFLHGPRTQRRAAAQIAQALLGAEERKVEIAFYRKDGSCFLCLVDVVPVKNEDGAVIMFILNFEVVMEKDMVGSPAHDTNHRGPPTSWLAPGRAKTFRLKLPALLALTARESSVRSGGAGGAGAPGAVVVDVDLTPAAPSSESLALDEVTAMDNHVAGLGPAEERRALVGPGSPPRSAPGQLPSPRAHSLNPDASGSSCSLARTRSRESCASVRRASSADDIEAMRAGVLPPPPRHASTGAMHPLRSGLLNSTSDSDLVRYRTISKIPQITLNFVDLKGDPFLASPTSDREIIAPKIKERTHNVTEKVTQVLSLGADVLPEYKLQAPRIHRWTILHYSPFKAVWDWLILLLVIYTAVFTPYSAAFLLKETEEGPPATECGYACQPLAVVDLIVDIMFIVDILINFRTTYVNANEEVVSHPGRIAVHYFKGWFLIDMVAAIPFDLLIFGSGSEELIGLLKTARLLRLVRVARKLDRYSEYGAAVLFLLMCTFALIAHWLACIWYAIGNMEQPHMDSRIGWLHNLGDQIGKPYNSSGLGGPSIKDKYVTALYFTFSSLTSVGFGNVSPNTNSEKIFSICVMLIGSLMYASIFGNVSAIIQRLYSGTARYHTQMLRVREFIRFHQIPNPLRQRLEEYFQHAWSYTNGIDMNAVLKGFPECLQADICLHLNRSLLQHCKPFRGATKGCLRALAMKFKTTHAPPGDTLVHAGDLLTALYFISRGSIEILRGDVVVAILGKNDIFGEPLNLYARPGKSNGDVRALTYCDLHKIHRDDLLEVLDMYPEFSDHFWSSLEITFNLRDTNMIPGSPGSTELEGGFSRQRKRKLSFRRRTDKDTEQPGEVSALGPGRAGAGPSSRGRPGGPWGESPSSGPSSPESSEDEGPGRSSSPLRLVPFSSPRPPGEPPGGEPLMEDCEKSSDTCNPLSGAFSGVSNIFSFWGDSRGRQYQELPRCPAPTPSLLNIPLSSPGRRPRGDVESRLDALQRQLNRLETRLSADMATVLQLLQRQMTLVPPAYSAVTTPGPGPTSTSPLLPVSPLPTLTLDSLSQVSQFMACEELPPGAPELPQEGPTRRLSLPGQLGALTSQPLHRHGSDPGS
Description: The most common mechanism for these adverse events is the inhibition of one or more cardiac potassium channels, in particular hERG. This current is important for cardiac myocyte repolarization and is a common target for drugs that prolong the QT interval. Test articles in this study were therefore characterized to determine their ability to inhibit the hERG channel. Ion channel activity was measured using a stably transfected Chinese Hamster Ovary (CHO) cell line expressing the hERG mRNA. The pharmacology of this cloned channel expressed in the CHO cell line is very similar to that observed in native tissue.
Cells: AVIVA's CHO cell line, which stably expresses hERG channels, was used for the study. Cells were cultured in DMEM/F12 containing 10% FBS, 1% penicillin/streptomycin and 500 μg/ml G418. Before testing, cells were harvested using Accumax (Innovative Cell Technologies).
Solutions: For electrophysiological recordings, the following solutions were used. External Solution: 2 mM CaCl2; 2 mM MgCl2; 4 mM KCl; 150 mM NaCl; 10 mM Glucose; 10 mM HEPES; 310-320 mOsm; pH 7.4 (adjusted with 1M NaOH). Internal Solution: 140 mM KCl; 10 mM MgCl2; 6 mM EGTA; 5 mM HEPESNa; […]; 300-320 mOsm; pH 7.25 (adjusted with 1M KOH).
Electrophysiology: Whole cell recordings were performed using PX 7000A (Axon Instruments) with VIVA's SealChip™ technology. Cells were voltage clamped at a holding potential of −80 mV. The hERG current was then activated by a depolarizing step to −50 mV for 300 ms. This first step at −50 mV was used as a baseline for measuring peak amplitude of the tail current. Next, a voltage step to +20 mV was applied for 5 s to activate the channels. Finally a step back to −50 mV for 5 seconds removed activation and the deactivating tail current was recorded.
Compound Handling and Dilutions: All compounds were prepared from either 10 or 30 mM DMSO stock solutions. Solutions were mixed by sonication for 20 min, followed by vigorous vortexing. Prior to testing, compounds were diluted to test concentrations in glass vials using External Solution. Dilutions were prepared no longer than 20 min prior to use. Equal amounts of DMSO (0.1%) were present in all final dilutions.
Electrophysiology Procedures: After achieving whole cell configuration, cells were monitored for 90 s to assess stability and then washed with External Solution for 66 s. The voltage protocol described above was then applied to the cells every 12 s throughout the procedure. Only stable cells with recording parameters above threshold (see Quality Control section) were allowed to enter the drug addition procedure. External solution containing 0.1% DMSO (vehicle) was applied to the cells to establish a baseline. After allowing the current to stabilize for 3 to 5 min, test articles were applied. Test article solutions were added to cells in 4 separate additions. Cells were kept in test solution until effect of the test article reached steady state, to a maximum of 12 min. Next, 1 μM cisapride (positive control) was added. Finally, washout with External Solution was performed until the recovery current reached a steady state.
Data Analysis: Data analysis was performed using DataXpress (Axon Instruments), Clampfit (Axon Instruments) and Origin (Originlab Corporation) software.

[3] = 20 mg/kg, rat, PO 20 mpk, liver/plasma, read-out: L/P Ratio
[4] = liver, 20 mg/kg, rat, PO 20 mpk, read-out: Liver
[5] = plasma, 20 mg/kg, rat, PO 20 mpk vs IV 1 mpk
[6] = plasma, 20 mg/kg, rat, PO 20 mpk, read-out: Plasma
[7] = 40 mg/kg, rat, PO 40 mpk, liver/plasma, read-out: L/P Ratio
[8] = liver, 40 mg/kg, rat, PO 40 mpk, read-out: Liver
[9] = plasma, 40 mg/kg, rat, PO 40 mpk, read-out: Plasma

Cn1nc(C(=O)NC2CCN(CCN3CCCCC3)CC2)c2ccc(N3CCCCCC3)nc21 [EBP1047]
Kp at 0.25 h [1, 3]: 78.3 | Kp at 1 h [1, 3]: 558 | Kp at 4 h [1, 3]: 261 | Kp at 8 h [1, 3]: 182 | concentration at 0.25 h [1, 4]: 382 ng/g | concentration at 1 h [1, 4]: 14000 ng/g | concentration at 4 h [1, 4]: 2670 ng/g | concentration at 8 h [1, 4]: 563 ng/g | concentration at 24 h [1, 4]: 5.35 ng/g | bioavailability [1, 5]: 9% | concentration at 0.25 h [1, 6]: 5.1 ng/mL | concentration at 1 h [1, 6]: 24.1 ng/mL | concentration at 4 h [1, 6]: 10.4 ng/mL | concentration at 8 h [1, 6]: 2.9 ng/mL | concentration at 24 h [1, 6]: 0 ng/mL | concentration in liver, fold above the EC50 [1]: 2-60 fold | Liver Conc (range) ([1]; rat, PO 20 mpk, over the period given): 1 to 30 µM

CCN1CCC(NC(=O)c2nn(C)c3nc(N4CCCCCC4)ccc23)CC1 [EBP1595]
Kp at 0.25 h [1, 3]: 652 | Kp at 1 h [1, 3]: 172 | Kp at 4 h [1, 3]: 67 | concentration at 0.25 h [1, 4]: 1900 ng/g | concentration at 1 h [1, 4]: 12400 ng/g | concentration at 4 h [1, 4]: 1400 ng/g | concentration at 8 h [1, 4]: 132 ng/g | concentration at 24 h [1, 4]: 0 ng/g | bioavailability [1, 5]: 9% | concentration at 0.25 h [1, 6]: 1.6 ng/mL | concentration at 1 h [1, 6]: 96.4 ng/mL | concentration at 4 h [1, 6]: 14 ng/mL | concentration at 8 h [1, 6]: 0 ng/mL | concentration at 24 h [1, 6]: 0 ng/mL | concentration in liver, fold above the EC50 [1]: 2-32 fold

Cn1nc(C(=O)NC2CCN(CCN3CCCC3)CC2)c2ccc(N3CCCCCC3)nc21 [EBP1597]
Kp at 0.25 h [1, 7]: 1670 | Kp at 4 h [1, 7]: 717 | Kp at 8 h [1, 7]: 582 | Kp at 12 h ([1]; 40 mg/kg, rat, PO 40 mpk, 12 h, liver/plasma, read-out: L/P Ratio): 527 | concentration at 0.25 h [1, 8]: 2620 ng/g | concentration at 4 h [1, 8]: 8120 ng/g | concentration at 8 h [1, 8]: 1500 ng/g | concentration at 12 h ([1]; liver, 40 mg/kg, rat, PO 40 mpk, 12 h, read-out: Liver): 1030 ng/g | liver concentration range at 12 h ([1]; liver, 40 mg/kg, rat, PO 40 mpk, over the period given, read-out: Liver Conc (range)): 2 to 18 µM | bioavailability ([1]; plasma, 40 mg/kg, rat, PO 40 mpk vs IV 1 mpk): 9% | concentration at 0.25 h [1, 9]: 1.6 ng/mL | concentration at 4 h [1, 9]: 10.3 ng/mL | concentration at 8 h [1, 9]: 2.6 ng/mL | concentration at 12 h ([1]; plasma, 40 mg/kg, rat, PO 40 mpk, 12 h, read-out: Plasma): 2.5 ng/mL | concentration in liver, fold above the EC50 [1]: 2-18 fold | Liver Conc (range) ([1]; rat, PO 40 mpk, over the period given): 2 to 18 µM

CC(C)N1CCC(NC(=O)c2nn(C)c3nc(N4CCCCCC4)ccc23)CC1 [EBP1604]
Kp at 0.25 h [1, 3]: 618 | Kp at 1 h [1, 3]: 275 | concentration at 0.25 h [1, 4]: 915 ng/g | concentration at 1 h [1, 4]: 4870 ng/g | concentration at 4 h [1, 4]: 203 ng/g | concentration at 8 h [1, 4]: 43 ng/g | concentration at 24 h [1, 4]: 0 ng/g | bioavailability [1, 5]: 2% | concentration at 0.25 h [1, 6]: 0.8 ng/mL | concentration at 1 h [1, 6]: 17.9 ng/mL | concentration at 4 h [1, 6]: 0 ng/mL | concentration at 8 h [1, 6]: 0 ng/mL | concentration at 24 h [1, 6]: 0 ng/mL | concentration in liver, fold above the EC50 [1]: up to 6 fold | Liver Conc (range) ([1]; rat, PO 20 mpk, over the period given, 20 mg/kg): 2 to 12 µM

Cn1nc(C(=O)NC2CCNCC2)c2ccc(N3CCCCCC3)nc21.O=C(O)C(F)(F)F.O=C(O)C(F)(F)F [compound 697]
IC50 [2]: > 10 µM

CCC(CC)Oc1ccc2c(C(=O)NC3CCNCC3)n[nH]c2n1 [compound 726]
IC50 [2]: > 10 µM

Clc1ccc(Cn2nc(COCCCN3CCCCC3)c3ccc(N4CCCCCC4)nc32)cc1 [compound 749]
IC50 [2]: 3.3 µM

CCC(CC)Oc1ccc2c(COCC3CCCNC3)nn(Cc3ccc(Cl)cc3)c2n1.O=C(O)C(F)(F)F (stereo not drawn) [compound 755]
IC50 [2]: > 10 µM

O=C(NC1CCNCC1)c1nn(C(=O)C2CCCCC2)c2nc(N3CCCCCC3)ccc12.O=C(O)C(F)(F)F.O=C(O)C(F)(F)F.O=C(O)C(F)(F)F [compound 989]
IC50 [2]: > 10 µM

Cn1nc(C(=O)NC2CCN(CCN3CCCCC3)CC2)c2ccc(N3CCCCCC3)nc21 [compound 1047]
IC50 [2]: 9.5 µM

Cn1nc(C(=O)NC2CCN(CC3CCCCC3)CC2)c2ccc(N3CCCCCCC3)nc21 [compound 1062]
IC50 [2]: > 10 µM

CCN1CCC(NC(=O)c2nn(C)c3nc(N4CCCCCC4)ccc23)CC1 [compound 1595]
IC50 [2]: 1.1 µM

Cn1nc(C(=O)NC2CCN(CCN3CCCC3)CC2)c2ccc(N3CCCCCC3)nc21 [compound 1597]
IC50 [2]: 9.1 µM
